According to PubChem BioAssay (NCI):
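These data come from cells grown in 96-well plates and exposed to compound for 48 hours at five concentrations. The concentration for 50% growth inhibition is given as GI50. The concentration for full growth arrest is given as TGI.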

What was measured:
Experiment in all cases: NCI anticancer screen, dose series, 48 h
786-0 renal = system: 786-0 renal
A498 renal = system: A498 renal
A549 NSCLC = system: A549 NSCLC
ACHN renal = system: ACHN renal
BT-549 breast = system: BT-549 breast
CAKI-1 renal = system: CAKI-1 renal
CCRF-CEM leukemia = system: CCRF-CEM leukemia
COLO 205 colon = system: COLO 205 colon
DU-145 prostate = system: DU-145 prostate
EKVX NSCLC = system: EKVX NSCLC
HCC-2998 colon = system: HCC-2998 colon
HCT-116 colon = system: HCT-116 colon
HCT-15 colon = system: HCT-15 colon
HOP-62 NSCLC = system: HOP-62 NSCLC
HOP-92 NSCLC = system: HOP-92 NSCLC
HS 578T breast = system: HS 578T breast
HT29 colon = system: HT29 colon
IGROV1 ovarian = system: IGROV1 ovarian
K-562 leukemia = system: K-562 leukemia
KM12 colon = system: KM12 colon
LOX IMVI melanoma = system: LOX IMVI melanoma
M14 melanoma = system: M14 melanoma
MALME-3M melanoma = system: MALME-3M melanoma
MCF7 breast = system: MCF7 breast
MDA-MB-231 breast = system: MDA-MB-231 breast
MDA-MB-435 = system: MDA-MB-435
MDA-MB-468 breast = system: MDA-MB-468 breast
MOLT-4 leukemia = system: MOLT-4 leukemia
NCI-H226 lung = system: NCI-H226 lung
NCI-H23 lung = system: NCI-H23 lung
NCI-H460 lung = system: NCI-H460 lung
NCI-H522 lung = system: NCI-H522 lung
NCI/ADR-RES ovarian = system: NCI/ADR-RES ovarian
OVCAR-3 ovarian = system: OVCAR-3 ovarian
OVCAR-4 ovarian = system: OVCAR-4 ovarian
OVCAR-5 ovarian = system: OVCAR-5 ovarian
OVCAR-8 ovarian = system: OVCAR-8 ovarian
PC-3 prostate = system: PC-3 prostate
RPMI-8226 leukemia = system: RPMI-8226 leukemia
RXF 393 renal = system: RXF 393 renal
SF-268 CNS = system: SF-268 CNS
SF-295 CNS = system: SF-295 CNS
SF-539 CNS = system: SF-539 CNS
SK-MEL-2 melanoma = system: SK-MEL-2 melanoma
SK-MEL-28 melanoma = system: SK-MEL-28 melanoma
SK-MEL-5 melanoma = system: SK-MEL-5 melanoma
SK-OV-3 ovarian = system: SK-OV-3 ovarian
SN12C renal = system: SN12C renal
SNB-19 CNS = system: SNB-19 CNS
SR leukemia = system: SR leukemia
SW-620 colon = system: SW-620 colon
T-47D breast = system: T-47D breast
TK-10 renal = system: TK-10 renal
U251 CNS = system: U251 CNS
UACC-257 melanoma = system: UACC-257 melanoma
UACC-62 melanoma = system: UACC-62 melanoma
UO-31 renal = system: UO-31 renal

For COc1ccccc1/C=C/C(=O)c1ccc(OC)c(S(N)(=O)=O)c1, the GI50 (786-0 renal) was 3.25 µM, the TGI (786-0 renal) was 12.9 µM and the GI50 (A498 renal) was 10.6 µM. It also gave a TGI (A498 renal) of 22.6 µM, a GI50 (A549 NSCLC) of 3.11 µM and a TGI (A549 NSCLC) of 13 µM. It also gave a GI50 (ACHN renal) of 3.38 µM, a TGI (ACHN renal) of 12.4 µM and a GI50 (BT-549 breast) of 2.58 µM. For the same molecule, the TGI (BT-549 breast) was 8.21 µM, the GI50 (CAKI-1 renal) was 3.18 µM and the TGI (CAKI-1 renal) was 13 µM. For the same molecule, the GI50 (CCRF-CEM leukemia) was 2.53 µM, the TGI (CCRF-CEM leukemia) was 6.81 µM and the GI50 (COLO 205 colon) was 3.54 µM. It also gave a TGI (COLO 205 colon) of 13.4 µM, a GI50 (DU-145 prostate) of 3.22 µM and a TGI (DU-145 prostate) of 12 µM. The GI50 (EKVX NSCLC) was 3.58 µM, the TGI (EKVX NSCLC) was 14.1 µM and the GI50 (HCC-2998 colon) was 2.65 µM. The TGI (HCC-2998 colon) was 12 µM, the GI50 (HCT-116 colon) was 2.49 µM and the TGI (HCT-116 colon) was 9.38 µM. The GI50 (HCT-15 colon) was 1.99 µM, the TGI (HCT-15 colon) was 10.5 µM and the GI50 (HOP-62 NSCLC) was 2.88 µM. For the same molecule, the TGI (HOP-62 NSCLC) was 10.3 µM, the GI50 (HOP-92 NSCLC) was 2.08 µM and the TGI (HOP-92 NSCLC) was 8.78 µM. The GI50 (HS 578T breast) was 3.27 µM, the TGI (HS 578T breast) was 20 µM and the GI50 (HT29 colon) was 3.06 µM. The TGI (HT29 colon) was 10.2 µM, the GI50 (IGROV1 ovarian) was 3.08 µM and the TGI (IGROV1 ovarian) was 11.5 µM. It also gave a GI50 (K-562 leukemia) of 0.349 µM, a TGI (K-562 leukemia) of 14.6 µM and a GI50 (KM12 colon) of 2.89 µM. The TGI (KM12 colon) was 10 µM, the GI50 (LOX IMVI melanoma) was 1.98 µM and the TGI (LOX IMVI melanoma) was 5.27 µM. The GI50 (M14 melanoma) was 2.71 µM, the TGI (M14 melanoma) was 11.8 µM and the GI50 (MALME-3M melanoma) was 3.99 µM. For the same molecule, the TGI (MALME-3M melanoma) was 16.2 µM, the GI50 (MCF7 breast) was 2.67 µM and the TGI (MCF7 breast) was 11.3 µM. The GI50 (MDA-MB-231 breast) was 2.72 µM, the TGI (MDA-MB-231 breast) was 7.47 µM and the GI50 (MDA-MB-435) was 2.98 µM. The TGI (MDA-MB-435) was 11.5 µM, the GI50 (MDA-MB-468 breast) was 2.04 µM and the TGI (MDA-MB-468 breast) was 5.91 µM. The GI50 (MOLT-4 leukemia) was 2.4 µM, the TGI (MOLT-4 leukemia) was 8.35 µM and the GI50 (NCI-H226 lung) was 3.96 µM. For the same molecule, the TGI (NCI-H226 lung) was 15.5 µM, the GI50 (NCI-H23 lung) was 2.29 µM and the TGI (NCI-H23 lung) was 9.56 µM. For the same molecule, the GI50 (NCI-H460 lung) was 2.09 µM, the TGI (NCI-H460 lung) was 5.51 µM and the GI50 (NCI-H522 lung) was 2.12 µM. It also gave a TGI (NCI-H522 lung) of 6.58 µM, a GI50 (NCI/ADR-RES ovarian) of 2.29 µM and a TGI (NCI/ADR-RES ovarian) of 6.68 µM. The GI50 (OVCAR-3 ovarian) was 2.23 µM, the TGI (OVCAR-3 ovarian) was 5.05 µM and the GI50 (OVCAR-4 ovarian) was 3.65 µM. For the same molecule, the TGI (OVCAR-4 ovarian) was 16.4 µM, the GI50 (OVCAR-5 ovarian) was 2.2 µM and the TGI (OVCAR-5 ovarian) was 6.14 µM. It also gave a GI50 (OVCAR-8 ovarian) of 2.36 µM, a TGI (OVCAR-8 ovarian) of 7.16 µM and a GI50 (PC-3 prostate) of 4.81 µM. For the same molecule, the TGI (PC-3 prostate) was 18.5 µM, the GI50 (RPMI-8226 leukemia) was 2.49 µM and the TGI (RPMI-8226 leukemia) was 7.46 µM. It also gave a GI50 (RXF 393 renal) of 2.35 µM, a TGI (RXF 393 renal) of 8.86 µM and a GI50 (SF-268 CNS) of 3.28 µM. The TGI (SF-268 CNS) was 12 µM, the GI50 (SF-295 CNS) was 2.66 µM and the TGI (SF-295 CNS) was 10.6 µM. For the same molecule, the GI50 (SF-539 CNS) was 2.25 µM, the TGI (SF-539 CNS) was 4.96 µM and the GI50 (SK-MEL-2 melanoma) was 10.4 µM. The TGI (SK-MEL-2 melanoma) was 22.3 µM, the GI50 (SK-MEL-28 melanoma) was 4.49 µM and the TGI (SK-MEL-28 melanoma) was 15.8 µM. It also gave a GI50 (SK-MEL-5 melanoma) of 3.85 µM, a TGI (SK-MEL-5 melanoma) of 14.2 µM and a GI50 (SK-OV-3 ovarian) of 7.25 µM. The TGI (SK-OV-3 ovarian) was 20.4 µM, the GI50 (SN12C renal) was 2.79 µM and the TGI (SN12C renal) was 10.4 µM. For the same molecule, the GI50 (SNB-19 CNS) was 4.02 µM, the TGI (SNB-19 CNS) was 15.3 µM and the GI50 (SR leukemia) was 1.44 µM. The TGI (SR leukemia) was 6.2 µM, the GI50 (SW-620 colon) was 2.86 µM and the TGI (SW-620 colon) was 10.8 µM. It also gave a GI50 (T-47D breast) of 3.25 µM, a TGI (T-47D breast) of 12.3 µM and a GI50 (TK-10 renal) of 3.54 µM. For the same molecule, the TGI (TK-10 renal) was 13 µM, the GI50 (U251 CNS) was 2.58 µM and the TGI (U251 CNS) was 10.7 µM. It also gave a GI50 (UACC-257 melanoma) of 5.96 µM, a TGI (UACC-257 melanoma) of 19.6 µM and a GI50 (UACC-62 melanoma) of 2.95 µM. The TGI (UACC-62 melanoma) was 12.3 µM, the GI50 (UO-31 renal) was 2.9 µM and the TGI (UO-31 renal) was 13.4 µM.
